From the supplement of paper PMC11208160

Experiment: recombinant barcode read abundance after kanamycin selection (control-corrected) (log10(CPM+1)); higher = more efficient recombination; sequences stand for … in AGTGCAGAGAAAATCGGCCAGTTTTCTCTGCCTGCAGTCCGCATGCCGT…ATTTATGCAGCGGACTGCCTTTCTCCCAAAGTGATAAACCGGACAGTATCATGGACCGGTTTTCCCGGTAATCCGTATTTGCAAGGTTGGTTTCACT; site = the 11-nt target
Summary of the method: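 Recombination efficiency comes from barcode counts at recombinant junctions, converted to counts per million, averaged and corrected against the control. Values appear as log10(CPM+1). They were obtained from a pooled E. coli screen in which each oligo paired a target with an IS621 bridge RNA target-binding loop, and cells were plated in duplicate on chloramphenicol/ampicillin LB agar or on chloramphenicol/ampicillin/kanamycin with 0.1 mM IPTG.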

Compared with “GTCGCCCCTTGGGTTCTAACCTGTTGCTACC [GTCGCCCCTTA_LTGcore_CT_RTGcore_GG] (site GTCGCCCCTTA) (LTG core: CT, RTG core: GG)”, “GTCGCCCCTTGGGTTCTAACCTGTTGCTACT [GTCGCCCCTTA_LTGcore_CT_RTGcore_AG] (site GTCGCCCCTTA) (LTG core: CT, RTG core: AG)” is lower in “recombinant barcode read abundance (log10)” value: 0.487 for the first, 0.19 for the second.

“GTCGCCCCTTGGGTTCTAACCTGTTGCTAGG [GTCGCCCCTTA_LTGcore_CT_RTGcore_CC] (site GTCGCCCCTTA) (LTG core: CT, RTG core: CC)” and “GTCGCCCGCTGGGTTCTAACCTGTTGCTAAG [GTCGCCCCTTA_LTGcore_GC_RTGcore_CT] (site GTCGCCCCTTA) (LTG core: GC, RTG core: CT)” are within 0.2 log units of each other in “recombinant barcode read abundance (log10)” value: 0.238 for the first, 0.224 for the second.

Going from “GTCGCCCTGTGGGTTCTAACCTGTTGCTACA [GTCGCCCCTTA_LTGcore_TG_RTGcore_TG] (site GTCGCCCCTTA) (LTG core: TG, RTG core: TG)” to “TAAGAATAGTGGGTTCTAACCTGTTGCCTAG [TAAGAATCTAG_LTGcore_AG_RTGcore_CT] (site TAAGAATCTAG) (LTG core: AG, RTG core: CT)”, the “recombinant barcode read abundance (log10)” value falls from 0.51 to 0.079.

“TAAGAATAGTGGGTTCTAACCTGTTGCCTCT [TAAGAATCTAG_LTGcore_AG_RTGcore_AG] (site TAAGAATCTAG) (LTG core: AG, RTG core: AG)” and “TAAGAATCTTGGGTTCTAACCTGTTGCCTAA [TAAGAATCTAG_LTGcore_CT_RTGcore_TT] (site TAAGAATCTAG) (LTG core: CT, RTG core: TT)” are within 0.2 log units of each other in “recombinant barcode read abundance (log10)” value: 0.0922 for the first, 0.175 for the second.

“TAAGAATCTTGGGTTCTAACCTGTTGCCTGC [TAAGAATCTAG_LTGcore_CT_RTGcore_GC] (site TAAGAATCTAG) (LTG core: CT, RTG core: GC)” and “TAAGAATGCTGGGTTCTAACCTGTTGCCTAG [TAAGAATCTAG_LTGcore_GC_RTGcore_CT] (site TAAGAATCTAG) (LTG core: GC, RTG core: CT)” are within 0.2 log units of each other in “recombinant barcode read abundance (log10)” value: 0.359 for the first, 0.216 for the second.

“TAAGAATGGTGGGTTCTAACCTGTTGCCTAG [TAAGAATCTAG_LTGcore_GG_RTGcore_CT] (site TAAGAATCTAG) (LTG core: GG, RTG core: CT)” and “TAAGAATTATGGGTTCTAACCTGTTGCCTAG [TAAGAATCTAG_LTGcore_TA_RTGcore_CT] (site TAAGAATCTAG) (LTG core: TA, RTG core: CT)” are within 0.2 log units of each other in “recombinant barcode read abundance (log10)” value: 0.0162 for the first, 0 for the second.

“TAAGAATTCTGGGTTCTAACCTGTTGCCTAG [TAAGAATCTAG_LTGcore_TC_RTGcore_CT] (site TAAGAATCTAG) (LTG core: TC, RTG core: CT)” and “TAAGAATTTTGGGTTCTAACCTGTTGCCTAG [TAAGAATCTAG_LTGcore_TT_RTGcore_CT] (site TAAGAATCTAG) (LTG core: TT, RTG core: CT)” are within 0.2 log units of each other in “recombinant barcode read abundance (log10)” value: 0.0977 for the first, 0.0485 for the second.

“TAGAGGGAATGGGTTCTAACCTGTTGCGGAG [TAGAGGGCTCC_LTGcore_AA_RTGcore_CT] (site TAGAGGGCTCC) (LTG core: AA, RTG core: CT)” and “TAGAGGGACTGGGTTCTAACCTGTTGCGGAG [TAGAGGGCTCC_LTGcore_AC_RTGcore_CT] (site TAGAGGGCTCC) (LTG core: AC, RTG core: CT)” are within 0.2 log units of each other in “recombinant barcode read abundance (log10)” value: 0.247 for the first, 0.265 for the second.

Compared with “TAGAGGGCTTGGGTTCTAACCTGTTGCGGCG [TAGAGGGCTCC_LTGcore_CT_RTGcore_CG] (site TAGAGGGCTCC) (LTG core: CT, RTG core: CG)”, “TAGAGGGCTTGGGTTCTAACCTGTTGCGGGC [TAGAGGGCTCC_LTGcore_CT_RTGcore_GC] (site TAGAGGGCTCC) (LTG core: CT, RTG core: GC)” is higher in “recombinant barcode read abundance (log10)” value: 0.972 for the first, 1.36 for the second.

“TAGAGGGCTTGGGTTCTAACCTGTTGCGGGG [TAGAGGGCTCC_LTGcore_CT_RTGcore_CC] (site TAGAGGGCTCC) (LTG core: CT, RTG core: CC)” and “TAGAGGGCTTGGGTTCTAACCTGTTGCGGTA [TAGAGGGCTCC_LTGcore_CT_RTGcore_TA] (site TAGAGGGCTCC) (LTG core: CT, RTG core: TA)” are within 0.2 log units of each other in “recombinant barcode read abundance (log10)” value: 0.241 for the first, 0.144 for the second.

Compared with “TAGAGGGGATGGGTTCTAACCTGTTGCGGTC [TAGAGGGCTCC_LTGcore_GA_RTGcore_GA] (site TAGAGGGCTCC) (LTG core: GA, RTG core: GA)”, “TAGAGGGGCTGGGTTCTAACCTGTTGCGGAG [TAGAGGGCTCC_LTGcore_GC_RTGcore_CT] (site TAGAGGGCTCC) (LTG core: GC, RTG core: CT)” is higher in “recombinant barcode read abundance (log10)” value: 0.0627 for the first, 0.284 for the second.

“TAGAGGGTCTGGGTTCTAACCTGTTGCGGAG [TAGAGGGCTCC_LTGcore_TC_RTGcore_CT] (site TAGAGGGCTCC) (LTG core: TC, RTG core: CT)” and “TAGAGGGTGTGGGTTCTAACCTGTTGCGGCA [TAGAGGGCTCC_LTGcore_TG_RTGcore_TG] (site TAGAGGGCTCC) (LTG core: TG, RTG core: TG)” are within 0.2 log units of each other in “recombinant barcode read abundance (log10)” value: 0.506 for the first, 0.623 for the second.

Going from “TCGCGACAGTGGGTTCTAACCTGTTGCCGAG [TCGCGACCTCG_LTGcore_AG_RTGcore_CT] (site TCGCGACCTCG) (LTG core: AG, RTG core: CT)” to “TCGCGACCTTGGGTTCTAACCTGTTGCCGAA [TCGCGACCTCG_LTGcore_CT_RTGcore_TT] (site TCGCGACCTCG) (LTG core: CT, RTG core: TT)”, the “recombinant barcode read abundance (log10)” value rises from 0.161 to 0.666.

Going from “TCGCGACCTTGGGTTCTAACCTGTTGCCGAG [TCGCGACCTCG_LTGcore_CT_RTGcore_CT] (site TCGCGACCTCG) (LTG core: CT, RTG core: CT)” to “TCGCGACGCTGGGTTCTAACCTGTTGCCGGC [TCGCGACCTCG_LTGcore_GC_RTGcore_GC] (site TCGCGACCTCG) (LTG core: GC, RTG core: GC)”, the “recombinant barcode read abundance (log10)” value falls from 1.15 to 0.0326.

“TCGCGACGGTGGGTTCTAACCTGTTGCCGCC [TCGCGACCTCG_LTGcore_GG_RTGcore_GG] (site TCGCGACCTCG) (LTG core: GG, RTG core: GG)” and “TCGCGACTATGGGTTCTAACCTGTTGCCGTA [TCGCGACCTCG_LTGcore_TA_RTGcore_TA] (site TCGCGACCTCG) (LTG core: TA, RTG core: TA)” are within 0.2 log units of each other in “recombinant barcode read abundance (log10)” value: 0.0807 for the first, 0.139 for the second.

“TCTACCCCTTGGGTTCTAACCTGTTGCTGCA [TCTACCCCTCA_LTGcore_CT_RTGcore_TG] (site TCTACCCCTCA) (LTG core: CT, RTG core: TG)” and “TCTACCCCTTGGGTTCTAACCTGTTGCTGGC [TCTACCCCTCA_LTGcore_CT_RTGcore_GC] (site TCTACCCCTCA) (LTG core: CT, RTG core: GC)” are within 0.2 log units of each other in “recombinant barcode read abundance (log10)” value: 0.217 for the first, 0.129 for the second.

“TCTACCCGCTGGGTTCTAACCTGTTGCTGAG [TCTACCCCTCA_LTGcore_GC_RTGcore_CT] (site TCTACCCCTCA) (LTG core: GC, RTG core: CT)” and “TCTACCCGTTGGGTTCTAACCTGTTGCTGAG [TCTACCCCTCA_LTGcore_GT_RTGcore_CT] (site TCTACCCCTCA) (LTG core: GT, RTG core: CT)” are within 0.2 log units of each other in “recombinant barcode read abundance (log10)” value: 0.045 for the first, 0.149 for the second.
